Measurements from patent US12365706B2, “Macrocyclic peptides as potent inhibitors of K-RAS G12D mutant” (Merck Sharp & Dohme LLC, priority 2019, dated 2025).
Starred links: 1 amine or outer side, 2 acyl side, 3 side chain; linkers in the order of their positions; H or OH if unused. Positions of bridges follow the written chain, without caps; N, C: chain ends. Non-standard residues stand in square brackets, D forms with d. Residues, ends and D or L forms follow the SMILES beside them. Lys(N3) = [N-]=[N+]=NCCCC[C@H](N)C(=O)O; AEEA = NCCOCCOCC(=O)O; CH2 = C([*:1])[*:2]

Assays:
K-Ras^G12D (GDP) [1] = molecular target: T1, K-Ras^G12D (GDP) (Homo sapiens, UniProt P01116, G12D); experiment: TR-FRET [K-Ras^G12D (GDP)] | EC50 (nM)
T1 construct: His-SUMO-tagged human K-Ras resides 1-169 was expressed; His-SUMO (N, cleaved yes); made in house; host or cells: E. coli Rosetta 2 (DE3)

K-Ras^G12D (GDP) [2] = molecular target: T1, K-Ras^G12D (GDP); experiment: TR-FRET competitive binding assay, K-Ras(G12D) loaded with GDP
K-Ras(G12D) (GMPPNP) = molecular target: T2, K-Ras(G12D) (GMPPNP) (Homo sapiens, UniProt P01116, G12D); experiment: TR-FRET competitive binding assay, K-Ras(G12D) loaded with GMPPNP
T2 construct: His-SUMO-tagged human K-Ras resides 1-169 was expressed; His-SUMO (N, cleaved yes); made in house; host or cells: E. coli Rosetta 2 (DE3)

[3] = Cell homogenate stability assay; assay type: in vitro ADME
Method: Stability of peptides towards intracellular proteases can be evaluated using HeLa cell homogenate. Suspended HeLa cells at 1 million cells/mL are sonicated in bursts with a probe sonicator on ice until uniformly homogenized. The homogenate thus prepared is frozen and stored at −20° C. until use. The peptides are incubated with the homogenate at 1 million cells/mL and loss of the peptide with increasing time is quantified using LC-MS/MS. Briefly, the test peptide is incubated with the homogenate at 1 μM in final volume of 50 μL at 37° C. At 0, 10, 30, 60 and 120 min, the reactions are quenched with 150 μL solution of 80% (v/v) Acetonitrile in Methanol containing a known internal standard peptide. The quenched samples are centrifuged at 4000 rpm for 5 min at 10° C. and supernatants are injected for bioanalysis by liquid chromatography combined with tandem-mass spectrometer. […] In addition, pre-boiled homogenate (prepared by incubating homogenate for 30 min in boiling water) is also used as a negative control for each test peptide. The ke is first-order rate constant describing the disappearance of parent drug in the incubation and may be obtained from regressing the initial slope (ke=−(slope)) of the natural log of the analyte area/internal standard area (designated as C at an appointed time t) in C versus time (min) profile. The half-life (t½) is calculated as: […]

[4] = test system: AsPC-1 (homozygous K-Ras(G12D)) cells; experiment: Cellular phospho-ERK assay in AsPC-1 cells; assay type: cell-based
Method: The cellular K-Ras inhibitory activity was evaluated by phosphorylation levels of ERK1/2 in AsPC-1 (homozygous K-Ras(G12D)) cells. AsPC-1 cells (ATCC® CRL-1682™) were cultured in T175 flask in growth medium (RPMI 1640 Medium, GlutaMAX™ Supplement, HEPES (Gibco 72400-047) supplemented with 10% fetal bovine serum (Hyclone SH30071.03) and 1× Penicillin/Streptomycin (Gibco 15140-122). The cells were harvested in seeding medium (RPMI 1640 Medium, no phenol red (Gibco 11835-030) supplemented with 10% fetal bovine serum (Hyclone SH30071.03), 25 mM HEPES (Gibco 15630-080) and 1× Penicillin/Streptomycin (Gibco 15140-122) after 5 min of 0.25% Trypsin-EDTA (Gibco 25200-056) digestion and were seeded in 384-well tissue culture treated plate (Greiner 781091) at a density of 15,000 cells/25 μL/well, and incubated at 37° C., 5% CO2 overnight. […] Phosphorylated ERK and total ERK levels were detected by Alpha SureFire Ultra Multiplex pERK kit (PerkinElmer MPSU-PTERK) using […] and 5 μL donor bead mix, both prepared following the manufacturer's protocol. […] Ratio of pERK vs total ERK in each well was used as the final readout. Dose response curves and EC50 were analyzed using a 4-parameter logistic equation in GraphPad Prism software (GraphPad, San Diego, CA).

K-Ras(G12D) = K-Ras(G12D) (Homo sapiens, UniProt P01116, G12D); settings: cited from earlier work
ERK1/2 = settings: cited from earlier work
[5] = test system: A427 cells (which contain the K-Ras(G12D) mutation); settings: dose-dependent manner; cited from earlier work

SMILES | EC50 (K-Ras^G12D (GDP) [1]) | affinity for the GDP-loaded form of K-Ras (G12D) (K-Ras^G12D (GDP) [2]) | affinity for the GTP-loaded form of K-Ras (G12D) (K-Ras(G12D) (GMPPNP)) | proteolytic degradation of the macrocycle in a cell homogenate stability study [3] | inhibition of ERK phosphorylation in an AsPC-1 cell line [4] | mutant selectivity in SOS1-mediated GDP-GTP exchange (K-Ras(G12D); G12D against G12C and wild-type K-Ras) | inhibition of SOS1-mediated GDP-GTP exchange (K-Ras(G12D)) | phosphorylation levels of ERK1/2 (ERK1/2) | cell proliferation of A427 cells [5]
CC[C@H](C)[C@@H]1NC(=O)[C@H](Cc2ccc(O)cc2)NC(=O)[C@H](CC(C)C)NC(=O)[C@@H]2CCCN2C(=O)[C@H](NC(=O)COCCOCCNC(=O)[C@H](CCCCN=[N+]=[N-])NC(=O)CNC(=O)[C@H](CCCCN)NC(=O)[C@H](CCCCN)NC(=O)[C@H](Cc2c[nH]c3ccccc23)NC(=O)[C@H](CCCCN)NC(=O)[C@H](CCSC)NC(=O)[C@H](CCCNC(=N)N)NC(=O)[C@H](CCCNC(=N)N)NC(=O)[C@H](CC(N)=O)NC(=O)[C@H](CCC(N)=O)NC(=O)[C@H](Cc2ccccc2)NC(=O)[C@H](Cc2c[nH]c3ccccc23)NC(=O)[C@@H](NC(=O)[C@H](CCCCN)NC(=O)[C@@H](NC(=O)[C@H](CCC(N)=O)NC(=O)[C@H](CCCNC(=N)N)NC(C)=O)[C@@H](C)CC)[C@@H](C)CC)CSCSC[C@@H](C(=O)N[C@@H](CCCNC(=N)N)C(N)=O)NC(=O)[C@H](C(C)C)NC(=O)[C@@H]2CCCN2C(=O)[C@H](CC(=O)O)NC(=O)[C@H](Cc2ccc(O)cc2)NC(=O)[C@H](CO)NC1=O [SEQ ID NO: 16] (Ac-RQIKIWFQNRRMKWKKG[Lys(N3)][AEEA][dC]PLYISYDPVCR-NH2; linker 20-30 via CH2) | 400 nM | – | – | – | – | – | – | – | –
CC[C@H](C)[C@@H]1NC(=O)[C@H](Cc2ccc(O)cc2)NC(=O)[C@H](CC(C)C)NC(=O)[C@@H]2CCCN2C(=O)[C@@H](NN[C@@H](CCCNC(=N)N)C(=O)N[C@@H](CCCNC(=N)N)C(=O)N[C@@H](CCCNC(=N)N)C(=O)N[C@@H](CCCNC(=N)N)C(=O)CC=O)CSSC[C@@H](C(=O)N[C@@H](CCCNC(=N)N)C(=O)N[C@@H](CCCNC(=N)N)C(=O)N[C@@H](CCCNC(=N)N)C(=O)N[C@@H](CCCNC(=N)N)C(N)=O)NC(=O)[C@H](C(C)C)NC(=O)[C@@H]2CCCN2C(=O)[C@H](CC(=O)O)NC(=O)[C@H](Cc2ccc(O)cc2)NC(=O)[C@H](CO)NC1=O [KRpep-2d] | – | high affinity | weaker affinity | rapid proteolytic degradation | absence of biological activity | G12D-mutant selectivity against G12C and wild-type K-Ras variants | potently inhibited | reduced phosphorylation levels of ERK1/2 | suppressed cell proliferation
